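These data come from cells grown in 96-well plates and exposed to compound for 48 hours at five concentrations. GI50 marks 50% less growth.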 Activity calls are given as the source filed them. No stated cut-off is given here; in the data, active = GI50 up to about 1.1 µM and inactive = higher.
Key:
Assay in all cases: NCI anticancer screen, dose series, 48 h
786-0 = system: 786-0
A498 = system: A498
A549 = system: A549
ACHN = system: ACHN
CAKI-1 = system: CAKI-1
CCRF-CEM = system: CCRF-CEM
DU-145 = system: DU-145
EKVX = system: EKVX
HCC 2998 = system: HCC 2998
HCT-116 = system: HCT-116
HCT-15 = system: HCT-15
HL-60 = system: HL-60
HOP-62 = system: HOP-62
HOP-92 = system: HOP-92
HT-29 = system: HT-29
Hs-578T = system: Hs-578T
IGROV-1 = system: IGROV-1
K562 = system: K562
LOX IMVI = system: LOX IMVI
M14 = system: M14
MCF7 = system: MCF7
MDA-MB-231 = system: MDA-MB-231
MDA-MB-435 = system: MDA-MB-435
MDA-N = system: MDA-N
MOLT-4 = system: MOLT-4
Malme-3M = system: Malme-3M
NCI-H23 = system: NCI-H23
NCI-H460 = system: NCI-H460
NCI-H522 = system: NCI-H522
NCI/ADR-RES = system: NCI/ADR-RES
OVCAR-3 = system: OVCAR-3
OVCAR-4 = system: OVCAR-4
OVCAR-5 = system: OVCAR-5
OVCAR-8 = system: OVCAR-8
PC-3 = system: PC-3
RPMI-8226 = system: RPMI-8226
RXF 393 = system: RXF 393
SF-268 = system: SF-268
SF-295 = system: SF-295
SF-539 = system: SF-539
SK-MEL-28 = system: SK-MEL-28
SK-MEL-2 = system: SK-MEL-2
SK-MEL-5 = system: SK-MEL-5
SK-OV-3 = system: SK-OV-3
SNB-19 = system: SNB-19
SNB-75 = system: SNB-75
SR = system: SR
SW-620 = system: SW-620
T47D = system: T47D
TK-10 = system: TK-10
U-251 = system: U-251
UACC-257 = system: UACC-257
UO-31 = system: UO-31
SN12C = system: SN12C
UACC-62 = system: UACC-62
COLO 205 = system: COLO 205
KM12 = system: KM12
NCI-H226 = system: NCI-H226

Measured: GI50

O=C1c2cc3c(cc2CC12Cc1ccc4c(c1C2=O)CCCC4)CCCC3 (configuration not stated)
inactive: 786-0 20.1 µM | A498 21.4 µM | A549 82.6 µM | ACHN 48.1 µM | CAKI-1 > 100 µM | CCRF-CEM > 100 µM | DU-145 > 100 µM | EKVX > 100 µM | HCC 2998 > 100 µM | HCT-116 27.7 µM | HL-60 > 100 µM | HOP-62 50.6 µM | HOP-92 21.4 µM | HT-29 > 100 µM | Hs-578T 61.7 µM | IGROV-1 80.7 µM | K562 > 100 µM | LOX IMVI > 100 µM | M14 > 100 µM | MCF7 > 100 µM | MDA-MB-231 48.3 µM | MDA-MB-435 > 100 µM | MDA-N > 100 µM | MOLT-4 > 100 µM | Malme-3M 21.5 µM | NCI-H23 79.1 µM | NCI-H460 97.9 µM | NCI-H522 85.7 µM | NCI/ADR-RES 44.7 µM | OVCAR-3 21.1 µM | OVCAR-4 25.9 µM | OVCAR-5 > 100 µM | OVCAR-8 67 µM | PC-3 > 100 µM | RPMI-8226 > 100 µM | RXF 393 42 µM | SF-268 50.2 µM | SF-295 92.5 µM | SF-539 36.1 µM | SK-MEL-28 > 100 µM | SK-MEL-2 45.6 µM | SK-MEL-5 > 100 µM | SK-OV-3 32.8 µM | SNB-19 40.8 µM | SNB-75 69.8 µM | SR > 100 µM | SW-620 > 100 µM | T47D > 100 µM | TK-10 > 100 µM | U-251 24 µM | UACC-257 > 100 µM | UO-31 > 100 µM
> 100 µM: HCT-15

CCCCCOP(=O)(OCCCCC)C(NC(C)=O)(C(=O)OCC)C(F)(F)F (configuration not stated)
> 100 µM: HCT-15
inactive: A498 > 100 µM | ACHN > 100 µM | CCRF-CEM > 100 µM | DU-145 > 100 µM | EKVX > 100 µM | HCC 2998 > 100 µM | HCT-116 > 100 µM | HL-60 > 100 µM | HOP-62 > 100 µM | HT-29 > 100 µM | K562 > 100 µM | M14 > 100 µM | MCF7 > 100 µM | MDA-MB-231 > 100 µM | MDA-MB-435 > 100 µM | MDA-N > 100 µM | MOLT-4 > 100 µM | Malme-3M > 100 µM | NCI-H522 > 100 µM | RPMI-8226 > 100 µM | SF-268 > 100 µM | SF-539 > 100 µM | SK-MEL-28 > 100 µM | SK-OV-3 > 100 µM | SN12C > 100 µM | SNB-75 > 100 µM | SR > 100 µM | T47D > 100 µM | U-251 > 100 µM | UACC-62 > 100 µM | UO-31 > 100 µM

Cc1ccc(/N=N/C(=N\NC(=O)c2ccc(C)cc2)c2ccc(N(CCC#N)CCC#N)cc2C)cc1
33.5 µM: HCT-15
inactive: A498 > 100 µM | A549 34.5 µM | ACHN 46.7 µM | CAKI-1 67 µM | CCRF-CEM 49.4 µM | COLO 205 48.2 µM | DU-145 57.8 µM | EKVX 43 µM | HCC 2998 50.2 µM | HL-60 17.4 µM | HOP-62 34.4 µM | HOP-92 51.3 µM | HT-29 19.4 µM | Hs-578T 16.4 µM | IGROV-1 13.4 µM | K562 35.9 µM | KM12 12.2 µM | LOX IMVI 35.7 µM | M14 30 µM | MCF7 31 µM | MDA-MB-231 57.9 µM | MDA-MB-435 21 µM | MDA-N 29.7 µM | MOLT-4 39.4 µM | NCI-H226 20.7 µM | NCI-H23 35.3 µM | NCI-H460 23.8 µM | NCI/ADR-RES 38.9 µM | OVCAR-3 26.2 µM | OVCAR-4 47.1 µM | OVCAR-5 50.5 µM | OVCAR-8 17.7 µM | PC-3 24 µM | RPMI-8226 13 µM | RXF 393 44.8 µM | SF-268 22.5 µM | SF-295 38.4 µM | SF-539 13.7 µM | SK-MEL-28 10.3 µM | SK-MEL-2 20.5 µM | SK-MEL-5 4.69 µM | SK-OV-3 65.6 µM | SNB-19 > 100 µM | SNB-75 35.5 µM | SR 18.7 µM | SW-620 39 µM | T47D 49.7 µM | TK-10 45.5 µM | U-251 14.8 µM | UACC-257 27.9 µM | UACC-62 22.4 µM | UO-31 > 100 µM

O=C1C(Cl)=C(N2CCN(CCOCCO)CC2)C(=O)c2c(O)ccc(O)c21
inactive: A549 2.77 µM | DU-145 2.65 µM | HCC 2998 3.28 µM | Hs-578T 2.1 µM | NCI-H226 1.75 µM | NCI-H460 3.08 µM | OVCAR-5 2.38 µM | SF-539 1.66 µM | SNB-75 1.77 µM
active: HL-60 0.0272 µM | HOP-92 0.422 µM | HT-29 0.64 µM | K562 0.104 µM | MOLT-4 0.0869 µM | T47D 0.458 µM
0.453 µM: HCT-15

Cc1cccc2c1CC1(Cc3c(C)cccc3C1=O)C2=O
> 100 µM: HCT-15
inactive: 786-0 > 100 µM | A498 > 100 µM | A549 > 100 µM | ACHN > 100 µM | CAKI-1 > 100 µM | CCRF-CEM > 100 µM | DU-145 > 100 µM | EKVX > 100 µM | HCC 2998 > 100 µM | HCT-116 > 100 µM | HL-60 > 100 µM | HOP-62 > 100 µM | HOP-92 > 100 µM | HT-29 > 100 µM | Hs-578T > 100 µM | IGROV-1 > 100 µM | K562 > 100 µM | LOX IMVI > 100 µM | M14 > 100 µM | MCF7 > 100 µM | MDA-MB-231 > 100 µM | MDA-MB-435 > 100 µM | MDA-N > 100 µM | MOLT-4 > 100 µM | Malme-3M > 100 µM | NCI-H23 > 100 µM | NCI-H460 > 100 µM | NCI-H522 > 100 µM | NCI/ADR-RES > 100 µM | OVCAR-3 > 100 µM | OVCAR-4 > 100 µM | OVCAR-5 > 100 µM | OVCAR-8 > 100 µM | PC-3 > 100 µM | RPMI-8226 > 100 µM | RXF 393 > 100 µM | SF-268 > 100 µM | SF-295 > 100 µM | SF-539 > 100 µM | SK-MEL-28 > 100 µM | SK-MEL-2 > 100 µM | SK-MEL-5 > 100 µM | SK-OV-3 > 100 µM | SNB-19 > 100 µM | SNB-75 > 100 µM | SR > 100 µM | SW-620 > 100 µM | T47D > 100 µM | TK-10 > 100 µM | U-251 > 100 µM | UACC-257 > 100 µM | UO-31 > 100 µM
